Where a name gives a salt, the structure may show the parent alone.

What is called EC50 is the concentration needed to bring the measured effect to its halfway point. A word on the IC50: it is the concentration at which inhibition is half-maximal.

The target in one test is T1, HiBit-labeled full length SHIP1 protein (Homo sapiens, UniProt Q92835).
T1 construct: thermal stability of a HiBit-labeled full length SHIP1 protein in intact cells; expressed in transfected cells; host or cells: HMC3 (stably transfected)
T1 sequence (Q92835 1-1189): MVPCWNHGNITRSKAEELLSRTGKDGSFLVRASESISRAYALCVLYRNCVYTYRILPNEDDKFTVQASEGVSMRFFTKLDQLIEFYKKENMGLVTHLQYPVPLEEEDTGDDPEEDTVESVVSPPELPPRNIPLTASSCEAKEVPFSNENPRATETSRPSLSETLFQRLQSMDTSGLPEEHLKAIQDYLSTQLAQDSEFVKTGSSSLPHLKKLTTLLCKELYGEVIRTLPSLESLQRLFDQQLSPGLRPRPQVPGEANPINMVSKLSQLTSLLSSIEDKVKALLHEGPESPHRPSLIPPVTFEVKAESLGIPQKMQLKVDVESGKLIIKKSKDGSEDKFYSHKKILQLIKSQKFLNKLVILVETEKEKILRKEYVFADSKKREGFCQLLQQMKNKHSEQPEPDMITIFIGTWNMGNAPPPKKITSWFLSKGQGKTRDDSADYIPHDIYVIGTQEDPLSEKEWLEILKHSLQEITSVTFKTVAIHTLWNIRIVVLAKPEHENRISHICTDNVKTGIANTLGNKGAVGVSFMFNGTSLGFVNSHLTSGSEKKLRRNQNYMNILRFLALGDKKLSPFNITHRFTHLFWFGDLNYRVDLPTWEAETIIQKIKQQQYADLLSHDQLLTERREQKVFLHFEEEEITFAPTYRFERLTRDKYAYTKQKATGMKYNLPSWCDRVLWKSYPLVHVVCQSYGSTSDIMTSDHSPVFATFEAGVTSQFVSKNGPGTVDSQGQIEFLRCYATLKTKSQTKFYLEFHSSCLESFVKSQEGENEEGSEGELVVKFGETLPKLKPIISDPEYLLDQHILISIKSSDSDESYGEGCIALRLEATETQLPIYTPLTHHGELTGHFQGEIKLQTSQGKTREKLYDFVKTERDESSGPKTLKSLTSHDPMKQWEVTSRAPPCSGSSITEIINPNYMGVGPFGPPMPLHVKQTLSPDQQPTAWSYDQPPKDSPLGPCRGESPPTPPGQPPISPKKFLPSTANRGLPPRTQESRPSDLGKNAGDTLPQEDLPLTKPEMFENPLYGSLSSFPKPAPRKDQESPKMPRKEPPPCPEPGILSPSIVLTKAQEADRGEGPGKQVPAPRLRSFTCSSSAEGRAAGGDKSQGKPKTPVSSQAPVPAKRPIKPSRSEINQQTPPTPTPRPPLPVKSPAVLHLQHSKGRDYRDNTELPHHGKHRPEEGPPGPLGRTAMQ
The test can be described thus: Cellular thermal shift assay (SplitLuc CETSA), compound dose response. It is filed as cell-based. The following applies: HMC3/HiBit-INPP5D cells, 60 min, heated at 44.2° C. How it is done:
Cellular thermal shift assay (CETSA). […] This assay was run in the following two formats with HMC3/HiBit-INPP5D stably transfected cells.
2. Compound dose response: run at target Tm (44.2° C. for SHIP1) with compound dosing from 80 uM or 100 uM with 1:3 serial dilutions to generate an 8 point curve. Cells were treated for 60 min before being heated at target Tm for 3 min before luminescence detection. An AC50 was calculated using a four-parameter logistic curve regression model with change at highest concentration noted when difference from control >3SD, otherwise AC50 marked as “nc” for not calculated.
See Martinez et al. (2018) Sci Rep 8: p. 9472; Oh-Hashi et al. (2017) Biochem Biophys Rep 12: pp. 40-45. This assay was run in the following two formats with HMC3/HiBit-INPP5D stably transfected cells.
Compound dose response: run at target Tm (44.2° C. for SHIP1) with compound dosing from 80 uM or 100 uM with 1:3 serial dilutions to generate an 8-point curve. Cells were treated for 60 min before being heated at target Tm for 3 min before luminescence detection. The concentration that induced a half-maximum response (AC50) was calculated using a four-parameter logistic curve regression model with change at highest concentration noted when difference from control >3SD.
On the technique in general: HiBiT is a short tag that completes a luciferase, so light tracks the accessible tagged protein.
Turning to `O=C(OCc1ccccc1)N1CCC(n2cc(-c3cncc(OCc4ccccc4Cl)c3)cn2)CC1` [Compound 19, Benzyl 4-(4-(5-((2-chlorobenzyl)oxy)pyridin-3-yl)-1H-pyrazol-1-yl)piperidine-1-carboxylate], the “CETSA Min Inhibition (%)” value is on record as 72.1%.

Another test has as its system BV2 cells. Nature of the test: pHrodo-myelin phagocytosis/cell health assay, BV2 cells. Type of test: cell-based. The settings on record: Mus musculus, BV-2, compound 48 hrs, 60 μM to 3 nM, (n) in cell. How it is done:
pHrodo-myelin phagocytosis/cell health assay with microglial cells. This 384-well plate high content imaging assay was developed to quantify phagocytosis and cell health simultaneously using either BV2 or HMC3 immortalized microglial cell lines or primary microglia isolated from mouse brain. Cells were cultured in DMEM GlutaMax media (ThermoFisher) containing 10% FBS and Pen-Strep in 37° C. 5% CO2 incubator.
Day 1: Cells were plated (Corning Falcon 384 well Optilux Black and clear bottom plates for imaging) with BV2 at 400 cells/45 μl/well, HMC3 at 600 cells/45 μl/well, or primary at 2000 cell/45 μl/well.
Day 2: Cells were treated with 10× serially diluted compounds in a dose range of 60 μM to 3 nM for 48 hrs at 37° C.
Day 3: Cells were seeded with pHrodo-myelin (for total 20 hrs) 24 hrs after starting compound treatment. The pHrodo-myelin stocks were at 1 mg/ml (protein equivalent) stored in −20° C. or −80° C. freezer. Stocks were thawed and diluted with culture media into 10× seeding solution (50 μg/ml) and added 5 μl/well to 384 well cell plate.
Day 4: Cell staining and imaging. Nuclear staining solution was prepared by adding 1 μl of 10 mg/mL Hoechst-33342 to every 1 ml culture media that will be added to cell plate at 20 μl/well. The final concentration of Hoechst-33342 to cells was about 2.5 μg/ml. Cell plates were incubated for >30 min at 37° C. before imaging. Cell plates were scanned with an ArrayScan automatic high content imaging system using a 10× objective lens, 4 fields/well collected. Three measurements were obtained 1) mean total phagocytosis spot intensity per cell, 2) total cell counts per well, and 3) mean average nuclear intensity per cell for cell health.
This 384-well plate high content imaging assay was developed to quantify phagocytosis and cell health simultaneously using either BV2 or HMC3 immortalized microglial cell lines or primary microglia isolated from mouse brain. Cells were cultured in DMEM GlutaMax media (ThermoFisher) containing 10% FBS and Pen-Strep in 37° C. 5% CO2 incubator. Day 1: Cells were plated (Corning Falcon 384 well Optilux Black and clear bottom plates for imaging) with BV2 at 400 cells/45 μl/well, HMC3 at 600 cells/45 μl/well, or primary at 2000 cell/45 μl/well. Day 2: Cells were treated with 10× serially diluted compounds in a dose range of 60 μM to 3 nM for 48 hrs at 37° C. Day 3: Cells were seeded with pHrodo-myelin (for total 20 hrs) 24 hrs after starting compound treatment. The pHrodo-myelin stocks were at 1 mg/ml (protein equivalent) stored in −20° C. or −80° C. freezer. Stocks were thawed and diluted with culture media into 10× seeding solution (50 μg/ml) and added 5 μl/well to 384 well cell plate. Day 4: Cell staining and imaging. Nuclear staining solution was prepared by adding 1 μl of 10 mg/mL Hoechst-33342 to every 1 ml culture media that will be added to cell plate at 20 μl/well. The final concentration of Hoechst-33342 to cells was about 2.5 μg/ml. Cell plates were incubated for >30 min at 37° C. before imaging. Cell plates were scanned with an ArrayScan automatic high content imaging system using a 10× objective lens, 4 fields/well collected. Three measurements were obtained 1) mean total phagocytosis spot intensity per cell, 2) total cell counts per well, and 3) mean average nuclear intensity per cell for cell health.
`O=C(OCc1ccccc1)N1CCC(n2cc(-c3cncc(OCc4ccccc4Cl)c3)cn2)CC1` [Compound 19, Benzyl 4-(4-(5-((2-chlorobenzyl)oxy)pyridin-3-yl)-1H-pyrazol-1-yl)piperidine-1-carboxylate] yielded an EC50 of 0.958 µM.

In another test the target is T2, SHIP1 (Homo sapiens, UniProt Q92835).
T2 sequence (Q92835 396-858): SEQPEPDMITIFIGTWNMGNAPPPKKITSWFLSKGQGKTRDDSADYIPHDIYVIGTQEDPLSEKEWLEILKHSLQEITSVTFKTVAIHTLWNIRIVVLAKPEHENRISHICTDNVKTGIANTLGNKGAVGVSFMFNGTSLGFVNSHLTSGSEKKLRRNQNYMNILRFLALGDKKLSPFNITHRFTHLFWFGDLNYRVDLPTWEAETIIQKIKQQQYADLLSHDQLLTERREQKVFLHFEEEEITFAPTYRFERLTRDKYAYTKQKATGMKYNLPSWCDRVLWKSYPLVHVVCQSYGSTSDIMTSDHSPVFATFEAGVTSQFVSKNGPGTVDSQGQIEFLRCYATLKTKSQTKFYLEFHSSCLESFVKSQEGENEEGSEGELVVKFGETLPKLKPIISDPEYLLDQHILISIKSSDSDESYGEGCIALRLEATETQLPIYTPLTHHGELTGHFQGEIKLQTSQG
The test can be described thus: Malachite green enzyme assay. Type of test: biochemical. The settings on record: Table 1; PI(3,4,5)P3-diC8 52 μM, enzyme 10 nM, SHIP1 Ptase-C2, 25° C., pH7.4; geometric mean; read-out: SHIP1 IC50 μM (n). From the text:
The inventors have performed a screen of 50K compounds at the SHIP1 phosphatase, analyzed a publicly available fragment-based screen, and evaluated inhibitors reported in the literature. They utilized the malachite green assay with PtdIns(3,4,5)P3-diC8 and SHIP1 Ptase-C2 to measure inhibitory potency. A Cellular Thermal Shift Assay was used to confirm target engagement in cells. A phosphoAKT assay was used to provide additional evidence of on-target activity. A high-content imaging assay measuring phagocytosis, cell number, and nuclear intensity was implemented using the BV2 and HMC3 cell lines to characterize cellular pharmacology and cytotoxicity. […] Inhibitors predicted to have drug-like properties were subjected to assays measuring solubility, cellular permeability, and mouse microsomal stability. A physiological based pharmacokinetic model was compared to measured exposure in vivo for select compounds upon oral administration in mice.
Malachite Green Enzyme Assay. […] Compounds diluted in DMSO were added to 384-well plates. Enzyme solution was added. After a 20 min incubation period, the reaction was initiated by addition of PI(3,4,5)P3-diC8. Final compound concentrations ranged from 50 nM to 950 μM. Final reaction concentrations for the PI(3,4,5)P3-diC8 substrate and the enzyme were 52 μM and 10 nM respectively. The reaction was quenched after 10 min by adding Malachite BioMol Green (Enzo Lifesciences, PA, USA). Plates were then incubated for 30 min at room temperature. Absorbance (620 nm) was measured using a SpectraMax Me5 Microplate Reader (Molecular Devices, LLC, USA). IC50 values were calculated by fitting absorbance versus inhibitor concentration.
Compounds diluted in DMSO were added to 384-well plates. Enzyme solution was added. After a 20 min incubation period, the reaction was initiated by addition of PI(3,4,5)P3-diC8. Final compound concentrations ranged from 50 nM to 950 μM. Final reaction concentrations for the PI(3,4,5)P3-diC8 substrate and the enzyme were 52 μM and 10 nM respectively. The reaction was quenched after 10 min by adding Malachite BioMol Green (Enzo Lifesciences, PA, USA). Plates were then incubated for 30 min at room temperature. Absorbance (620 nm) was measured using a SpectraMax Me5 Microplate Reader (Molecular Devices, LLC, USA). IC50 values were calculated by fitting absorbance versus inhibitor concentration and are reported as the geometric mean and standard error of mean with the number of repeats (n) indicated. Compounds and activities are as depicted in tables 1 and 2 above.
With `CC(C)(C)OC(=O)N1CCC(n2cc(-c3cncc(OCc4ccc(Cl)cc4)c3)cn2)CC1` [Compound 6, tert-butyl 4-(4-(5-((4-chlorobenzyl)oxy)pyridin-3-yl)-1H-pyrazol-1-yl)piperidine-1-carboxylate], the concentration for half-maximal inhibition (IC50) was found to be 137 µM.

With `CC(C)(C)OC(=O)N1CCC(n2cc(-c3cncc(OCc4ccc(Cl)cc4Cl)c3)cn2)CC1` [Compound 8, tert-butyl 4-(4-(5-((2,4-dichlorobenzyl)oxy)pyridin-3-yl)-1H-pyrazol-1-yl)piperidine-1-carboxylate], the half-maximal inhibitory concentration (IC50) turned out to be 18.1 µM. On the same count and under the same terms, next, `Clc1ccc(COc2cncc(-c3cnn(C4CCNCC4)c3)c2)cc1` [Compound 11, 3-((4-chlorobenzyl)oxy)-5-(1-(piperidin-4-yl)-1H-pyrazol-4-yl)pyridine hydrochloride]: 109 µM. For `Brc1ccc(COc2cncc(-c3cnn(C4CCNCC4)c3)c2)cc1` [Compound 12, 3-((4-bromobenzyl)oxy)-5-(1-(piperidin-4-yl)-1H-pyrazol-4-yl)pyridine hydrochloride], the IC50 came out at 29.7 µM. On the same count and under the same terms, the result for `c1ccc(COc2cncc(-c3cnn(C4CCNCC4)c3)c2)cc1` [Compound 14, 3-(benzyloxy)-5-(1-(piperidin-4-yl)-1H-pyrazol-4-yl)pyridine trifluoroacetate] reads 208 µM. On to `COC(=O)N1CCC(n2cc(-c3cncc(OCc4ccccc4Cl)c3)cn2)CC1` [Compound 17, Methyl 4-(4-(5-((2-chlorobenzyl)oxy)pyridin-3-yl)-1H-pyrazol-1-yl)piperidine-1-carboxylate], for which the IC50 turned out to be 133 µM.

`O=C(c1ccccc1)N1CCC(n2cc(-c3cncc(OCc4ccccc4Cl)c3)cn2)CC1` [Compound 18, (4-(4-(5-((2-chlorobenzyl)oxy)pyridin-3-yl)-1H-pyrazol-1-yl)piperidin-1-yl)(phenyl)methanone]: the IC50 stood at 99.2 µM.
